2 compounds from US5958947A, “DNA-affinic hypoxia selective cytotoxins” (priority 1996, dated 1999) can be followed below.

Where “and” joins values, the source holds several entries; their conditions need not be identical. Identical values can stand only once. Entries after “also recorded” stand apart in the source; their conditions may differ. Counter-ions that a name gives are not always drawn. Like-named read-outs stand apart in the source and are kept apart here.

The subject of one series is V79 cells. The series can be described thus: Isoeffective to the oxygen dose (IsD). In kind it is cell-based, Chinese hamster. The following applies: Cricetulus griseus; for EC (isoeffective to oxygen at 7.5 Gy): read-out: Isoeffective to the oxygen dose at 7.5 Gy: IsD(7.5); for EC (isoeffective to oxygen at 20 Gy): read-out: Isoeffective to the oxygen dose at 20 Gy: IsD. The text has this:
The survival fraction under hypoxic conditions (plotted versus compound concentration) meets the aerobic survival fraction (radiation toxicity) at the IsD. The IsD value is a useful indicator of the overall potency of a compound as a sensitizer and cytotoxin of hypoxic cells. IsD is especially useful when comparing different compounds for hypoxic cytotoxicity and radiosensitizing efficacy.
FIGS. 5 and 6 illustrate the IsD at 7.5 Gy (FIG. 5A) and 20 Gy (FIG. 5B). FIGS. 5A and 6A include a comparison to the prior art NLA-1 compound. V79 cells were irradiated at 7.5 Gy or 20 Gy after a 1 hour exposure under hypoxia (symbols) or air (straight line), at various drug concentrations. No toxicity or radiosensitization for any tested compound was observed under aerobic conditions over the tested concentration ranges. IsD values were calculated from the intersections of the survival fractions of the hypoxic curves with the survival fraction in air. All data points in FIGS. 5 and 6 represent the mean of two replicate experiments.

The next series relates to supercoiled DNA. Put plainly: DNA intercalation by agarose gel electrophoresis (mobility of supercoiled DNA). As to conditions: electrophoretic gel, up to millimolar concentrations. In kind it is binding. The text has this:
An agarose gel electrophoresis technique was used to determine whether THNLA-1 intercalates DNA. Compounds that strongly intercalate DNA retard DNA mobility during agarose gel electrophoresis due to unwinding and extension of the dsDNA.

A further series deals with human Topo II. The series can be described thus: Topoisomerase II interaction (decatenation of kinetoplast DNA). The format is biochemical. The following applies: up to 1 mM. Here is the method: A Topo II assay kit (TopoGEN, Inc., Columbus, Ohio) also was used to assay the topoisomerase II--THNLA-1 interaction. […] Individual reaction mixtures were heated for 30 minutes at 37° C. on a heating block, and then 2 μl of a 10% SDS-proteinase K solution was added to each reaction mixture. The resulting reaction mixtures then were heated for an additional 30 minutes at 37° C. After addition of a 0.1 volume of loading buffer, the reaction mixtures were extracted with CHCl3 prior to submarine electrophoresis on a 1% agarose gel containing ethidium bromide (0.5 μg/ml).

The target of another series is T1, calf thymus Topo I (Bos taurus, UniProt F1MN93).
T1 construct: purchased TopoGEN, Inc., Columbus, Ohio; host or cells: calf thymus
T1 sequence (F1MN93 1-767): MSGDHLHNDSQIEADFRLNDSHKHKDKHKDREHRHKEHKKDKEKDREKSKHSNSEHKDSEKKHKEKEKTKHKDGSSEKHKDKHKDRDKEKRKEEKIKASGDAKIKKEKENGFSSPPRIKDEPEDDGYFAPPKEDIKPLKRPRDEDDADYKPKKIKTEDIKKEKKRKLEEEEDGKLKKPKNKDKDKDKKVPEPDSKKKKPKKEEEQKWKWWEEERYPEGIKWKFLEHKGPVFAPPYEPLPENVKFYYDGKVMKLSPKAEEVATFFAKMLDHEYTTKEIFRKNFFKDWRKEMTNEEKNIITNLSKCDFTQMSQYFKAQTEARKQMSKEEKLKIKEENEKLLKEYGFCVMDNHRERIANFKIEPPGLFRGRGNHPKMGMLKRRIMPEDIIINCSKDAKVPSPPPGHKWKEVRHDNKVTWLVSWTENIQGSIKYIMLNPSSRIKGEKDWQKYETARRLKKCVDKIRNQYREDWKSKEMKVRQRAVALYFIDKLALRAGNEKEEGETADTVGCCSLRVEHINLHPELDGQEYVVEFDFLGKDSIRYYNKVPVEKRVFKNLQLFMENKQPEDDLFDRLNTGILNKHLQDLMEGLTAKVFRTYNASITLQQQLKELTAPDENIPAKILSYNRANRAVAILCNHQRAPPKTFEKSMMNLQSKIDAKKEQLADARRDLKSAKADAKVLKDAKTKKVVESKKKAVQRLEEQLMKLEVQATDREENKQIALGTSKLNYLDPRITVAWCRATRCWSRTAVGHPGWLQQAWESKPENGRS
The series can be described thus: Topoisomerase I interaction (relaxation of supercoiled DNA). The format is biochemical. The following applies: for IC100: 0.5 h; for IC50: Topo I inhibition (50%)-dose, Topo I-induced relaxation of supercoiled DNA. The method, then:
In particular, a Topo I drug screening kit (TopoGEN, Inc., Columbus, Ohio) was used to assay the topoisomerase I THNLA-1 interaction. […] Camptothecin is a Topoisomerase I poison used as an anticancer drug. Camptothecin stabilizes the Topo I-DNA cleavable complex, and therefore prevents the resealing of DNA by Topo-I.
Individual reaction mixtures were heated for 30 minutes at 37° C. on a heating block, and then 2 μl of 10% SDS - proteinase K solution was added to each reaction mixture. The resulting reaction mixtures then were heated for an additional 30 minutes at 37° C. The reaction mixtures in a loading buffer were extracted with CHCl3 prior to submarine electrophoresis on a 1% agarose gel. The DNA bands were observed visually by staining with ethidium bromide (0.5 μg/ml).

For series [1], the system named is V79 Chinese hamster lung cells. Put plainly: Radiosensitization of V79 cells. The following applies: for maximum SER value: hypoxic V79 cells, 100 μM for THNLA-1, non-toxic concentrations for others. In kind it is cell-based. The method, then: Samples of V79 Chinese hamster lung cells used in the following experiments were prepared as follows. V79 cells, exponentially growing as monolayer cultures in RPMI 1640 medium (Mediatech) supplemented with 10% fetal calf serum, were trypsinized, centrifuged for 5 min, harvested, then suspended in 25 ml Erlenmeyer flasks fitted with rubber caps at 5×10^5 cells/ml (5 ml). Individual flasks either were shaken (100 rpm) at 37° C. under aerobic conditions or made hypoxic by gassing with a 95% N2 (nitrogen)/5% CO2 (carbon dioxide) humidified gas mixture for 1 hour.
Radiosensitization studies were performed on V79 cells in a manner similar to the acute toxicity experiments, except that the survival fraction was determined after a predetermined radiation dose. […] One Gy is equal to 100 rads, wherein one rad is the quantity of ionizing radiation that results in the absorption of 100 ergs of energy per gram of irradiated material. Hypoxia was maintained throughout irradiation. […] Sensitization enhancement ratios (SER) were determined at a 10% survival level. […] The plotted points in FIGS. 3 and 4 represent the mean of 2 or 3 replicate experiments.

The nature of series [2]: Partition coefficient in octanol/water. In kind it is physicochemical. Here is the method: The partition coefficient of the hypoxia selective cytotoxins of the present invention were determined by the method of T. Fujita et al., J. Am. Chem. Soc., 86, 5175-5180 (1964), incorporated herein by reference.

By IC50 is commonly meant the concentration that inhibits the measured activity by half. A higher IC50 goes with weaker potency.

`O=[N+]([O-])c1nccn1CCCNc1c2c(nc3ccccc13)CCSC2` [S-THNLA-1, 10-[3-(2-nitroimidazolyl)propylamino]-3,4-dihydro-1-H-thiopyrano[4,3-b]quinoline hydrochloride]: the EC (isoeffective to oxygen at 7.5 Gy) in the series with V79 cells (V79, 1 h) was 60 µM. Besides, in the series on V79 cells (V79, 1 h), the EC (isoeffective to oxygen at 20 Gy) is approximately 103 µM. Moreover, the “effect on mobility of supercoiled DNA” value in the series with supercoiled DNA is “do not affect the mobility of supercoiled DNA”. Moreover, the “inhibition of Topo II-induced decatenation of kinetoplast DNA” value in the series with human Topo II was “did not inhibit the action of Topoisomerase II on kinetoplast DNA”. Besides, the IC100 on calf thymus Topo I (read-out: concentration for complete inhibition of Topo I) is approximately 800 µM. For the same compound, the IC50 against calf thymus Topo I was approximately 800 µM. The “formation of nicked DNA with Topo I” value on calf thymus Topo I (in Topo I test) was “some nicked DNA also was observed”. Moreover, the EC (SER 1.6) in series [1] (Cricetulus griseus, V79, 1 h, read-out: Hypoxic radiosensitizing potency: C1.6, concentration yielding an SER of 1.6, hypoxic V79 cells) was 40 to 45 µM; in series [1] (Cricetulus griseus, V79, read-out: Intracellular concentration at C1.6: C1.6i, hypoxic radiosensitization, V79 cells (tables)) it was 932 µM; in series [1] (concentration yielding an SER of 1.6, hypoxic V79 cells, hydrochloride, read-out: Hypoxic radiosensitizing potency: C1.6), 40 µM. Besides, in series [1], the “maximum SER value” was “equal to OER”. The “therapeutic index relative to NLA-1” value in series [1] (in vitro ThI) was “better therapeutic index than NLA-1”. Also, the “Therapeutic index (ThI): IC50/A,1h /C1.6” value in series [1] (in vitro, V79 cells) is given as “about 15”. Moreover, the “Partition coefficient in octanol/water: PCo/w” value in series [2] (hydrochloride) was 0.41 and 0.40.
Regarding `Cl.O=[N+]([O-])c1nccn1CCCNc1c2c(nc3ccccc13)CCCC2` [THNLA-1, 9-[3-(2-nitro-1-imidazolyl)propylamino]-1,2,3,4-tetrahydroacridine hydrochloride], the EC (isoeffective to oxygen at 7.5 Gy) in the series on V79 cells (V79, 1 h, 7.5 Gy, 1 hour at 37° C.) is approximately 40 µM. In addition, in the series with V79 cells (V79, 20 Gy, 1 hour at 37° C.), the EC (isoeffective to oxygen at 20 Gy) was approximately 78 µM. Further, in the series with supercoiled DNA, the “effect on mobility of supercoiled DNA” value is recorded as “do not affect the mobility of supercoiled DNA”. Moreover, in the series on human Topo II (hydrochloride), the “inhibition of Topo II-induced decatenation of kinetoplast DNA” value is reported as “does not inhibit the Topo II-induced decatenation of KDNA even at very high concentrations; also recorded: did not inhibit decatenation of kinetoplast DNA”. Also, the “Topo I-dependent single-stranded DNA cleavage” value on calf thymus Topo I is “not observed”. The IC100 at calf thymus Topo I (read-out: complete inhibition of Topo I not observed up to) is more than 1000 µM. The IC50 against calf thymus Topo I was ~600 µM and 600 µM. Moreover, on calf thymus Topo I (supercoiled DNA), the “inhibition of Topo I-induced relaxation” value was “inhibits Topo I-induced relaxation of supercoiled DNA, but at significantly higher concentrations than NLA-type compounds”. For the same compound, the “concentration at which inhibition of Topo I starts” value at calf thymus Topo I (supercoiled DNA relaxation) is 100 µM. The “radiosensitization of hypoxic V79 cells” value in series [1] (1 hour at 37° C. before irradiation, hypoxic) is recorded as “Significant radiosensitization”. Moreover, the EC (SER 1.6) in series [1] (Cricetulus griseus, 1 h, concentration yielding an SER of 1.6, hypoxic V79 cells, read-out: Hypoxic radiosensitizing potency: C1.6) was 19 µM; in series [1] (Cricetulus griseus, hypoxic radiosensitization, V79 cells (tables), read-out: Intracellular concentration at C1.6: C1.6i) it was 443 µM; in series [1] (Cricetulus griseus, hypoxic radiosensitization, V79 cells, read-out: Intracellular concentration for an SER of 1.6: C1.6i), 443 µM. Besides, in series [1] (V79 cells (hypoxic conditions), hydrochloride), the “radiosensitization when administered immediately after irradiation” value was “radiosensitization also was not observed; also recorded: No radiosensitization was observed”. Also, the “radiosensitization under aerobic conditions” value in series [1] (V79 cells, aerobic) is recorded as “Radiosensitization was not observed”. The “radioprotection under aerobic conditions” value in series [1] (aerobic) is “no radioprotection occurred”. The “maximum SER value” in series [1] came out at 3.1. For the same compound, in series [2], the “Partition coefficient in octanol/water: PCo/w” value is 0.14. Further, the logP in series [2] (read-out: Partition coefficient in octanol/water: PCo/w (converted)) is -0.854.
